Literature values as cited in patent US20080057142A1, “COMPOSITIONS AND METHODS FOR WEIGHT-LOSS AND WEIGHT-LOSS MAINTENANCE IN DAYTIME AND NIGHTTIME FORMULATION” (priority 2005, published 2008).

Conditions: EGCG, but not related catechins

Q: Which body weight does the source give for epigallocatechin-3-gallate [EGCG] here?
A: The body weight was “reduced body weight”.

Q: What about the food intake of the same substance?
A: The food intake was “significantly reduced food intake”.
